Here are results for 27 compounds from patent US8697869B2, “3-(heteroaryl-amino)-1,2,3,4-tetrahydro-9H-carbazole derivatives and their use as prostaglandin D2 receptor modulators” (Actelion Pharmaceuticals Ltd., priority 2010, dated 2014).

Experiment [1] deals with T1, hCRTH2 receptor (Homo sapiens (Human), UniProt Q9Y5Y4). Put plainly: hCRTH2 receptor membranes radioligand displacement assay (3H-PGD2). The conditions noted are these: 3H-PGD2 2.5 nM, HEK293-hCRTH2 membranes, Binding-Buffer with 0.1% BSA. The procedure:
Biological Assays: Preparation of hCRTH2 Receptor Membranes and Radioligand Displacement Assay:
(§1) First, recombinant HEK293-hCRTH2 cells were detached from culture plates into 5 ml buffer A/plate (Buffer A: 5 mM Tris, 1 mM MgCl2-6H2O pH=7.4) using a rubber policeman. Cells were then transferred into centrifugation tubes and centrifuged for 5 min at 400 g. The cell pellet was resuspended in the same buffer and tubes were frozen at −80° C. Cells were thawed and membrane fragments were generated by homogenization using a polytron homogenizer (30 seconds). The membrane fragments were then centrifuged at 3000 g for 20 minutes and resuspended in buffer C (Buffer C: 75 mM Tris, 25 mM MgCl2, 250 mM Saccharose pH 7.4). Aliquots of membrane fragements were stored at −20° C.
(§2) Binding assay was performed in a final assay volume of 250 μl. First, 25 μl of test compound, previously diluted in Binding-Buffer (Binding-Buffer: 50 mM Tris-Base, 100 mM NaCl, 1 mM EDTA, 0.1% BSA (protease free), 0.01% NaN3, 10 mM MnCl2 pH 7.0) was placed into each well. After addition of 75 μl Binding-Buffer, 50 μl of the radioligand ^3H-PGD2 (at 2.5 nM (220.000 dpm/well) from ANAWA ART0662) was added to each well. Binding assay was started by addition of 100 μl CRTH2 membrane fragments, reaching a final concentration of 20 μg/well. For non-specific binding, PGD2 was added to the reaction mixture to […] final concentration. This assay mix was incubated for 90 minutes at room temperature and then filtered through a GF/C filter 96-well plate which was pre-soaked for 3 hours in 0.5% polyethyleneimine (PEI). The filter-wells were washed three times with ice cold Binding-Buffer. Then, 40 μl of Microscint-40 (Packard) was added to each well and the retained radioactivity quantified in a Topcount (Packard).
(Loss of bound radioactivity is the signal in a displacement assay; it reports binding, not function.)

For experiment [2], the target named is T1, hCRTH2 receptor. In words: Radioligand displacement assay in presence of human serum albumin (HSA). The following applies: 3H-PGD2 2.5 nM, Binding-Buffer with 0.5% HSA instead of 0.1% BSA. As to the method:
as §1, §2
Radioligand Displacement Assay-Human Serum Albumin (HSA):
Radioligand displacement assay in presence of human serum albumin (HSA) was performed as described above, with following modifications. Binding-Buffer-HSA: Binding-buffer+0.5% Sigma Albumin from Human serum A1887 (instead of 0.1% BSA). A volume of 25 μl test compound, previously diluted in Binding-Buffer-HSA was placed into each well. After addition of 75 μl Binding-Buffer-HSA, 50 μl of ^3H-PGD2 (at 2.5 nM (220.000 dpm/well) from ANAWA ART0662) was added to each well. Remaining protocol was identical as described above.

What is called IC50 is the midpoint of a concentration-inhibition curve.

The structures appear in SMILES notation.

T1 sequence (Q9Y5Y4 whole entry): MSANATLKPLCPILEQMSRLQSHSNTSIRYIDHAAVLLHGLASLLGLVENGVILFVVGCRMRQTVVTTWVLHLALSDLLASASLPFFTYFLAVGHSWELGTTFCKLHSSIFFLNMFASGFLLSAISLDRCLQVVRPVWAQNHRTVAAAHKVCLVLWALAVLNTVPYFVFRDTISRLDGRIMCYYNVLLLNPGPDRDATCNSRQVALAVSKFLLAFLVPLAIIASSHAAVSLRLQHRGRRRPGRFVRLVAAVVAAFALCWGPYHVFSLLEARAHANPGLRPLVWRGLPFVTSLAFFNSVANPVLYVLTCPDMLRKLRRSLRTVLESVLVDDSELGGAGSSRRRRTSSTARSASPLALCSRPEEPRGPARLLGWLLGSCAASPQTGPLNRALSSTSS

Regarding `CN(c1ncc(Cl)cn1)[C@@H]1CCc2c(c3cc(F)ccc3n2CC(=O)O)C1` [Example 10, (3R)-2-(3-((5-chloropyrimidin-2-yl)(methyl)amino)-6-fluoro-3,4-dihydro-1H-carbazol-9(2H)-yl)acetic acid], at hCRTH2 receptor [1], the IC50 amounted to 58 nM.

Regarding `CN(c1nc(C(F)(F)F)cs1)C1CCc2c(c3cc(F)ccc3n2CC(=O)O)C1` (centres unmarked) [Example 47, 2-(6-fluoro-3-(methyl(4-(trifluoromethyl)thiazol-2-yl)amino)-3,4-dihydro-1H-carbazol-9(2H)-yl)acetic acid], the IC50 on hCRTH2 receptor [2] was found to be 402 nM; on hCRTH2 receptor [1], 14 nM.

In the case of `CN(c1ncc(-c2ccccc2)cn1)[C@H]1CCc2c(c3cc(F)ccc3n2CC(=O)O)C1` [Example 30, (3S)-2-(6-fluoro-3-(methyl(5-phenylpyrimidin-2-yl)amino)-3,4-dihydro-1H-carbazol-9(2H)-yl)acetic acid], the IC50 on hCRTH2 receptor [2] is 41 nM; at hCRTH2 receptor [1], 11 nM.

With `Cc1ccnc(N(C)[C@H]2CCc3c(c4cc(F)ccc4n3CC(=O)O)C2)n1` [Example 17, (3S)-2-(6-fluoro-3-(methyl(4-methylpyrimidin-2-yl)amino)-3,4-dihydro-1H-carbazol-9(2H)-yl)acetic acid], on hCRTH2 receptor [1], the IC50 worked out at 107 nM.

As for `CN(c1ncc(Cl)cn1)C1CCc2c(c3cc(C(F)(F)F)ccc3n2CC(=O)O)C1` (centres unmarked) [Example 58, 2-(3-((5-chloropyrimidin-2-yl)(methyl)amino)-6-(trifluoromethyl)-3,4-dihydro-1H-carbazol-9(2H)-yl)acetic acid], the IC50 at hCRTH2 receptor [2] was found to be 15 nM; on hCRTH2 receptor [1], 3.5 nM.

For `O=C(O)Cn1c2c(c3cc(F)ccc31)C[C@H](Nc1ncc(F)cn1)CC2` [Example 2, (3R)-2-(6-fluoro-3-((5-fluoropyrimidin-2-yl)amino)-3,4-dihydro-1H-carbazol-9-(2H)-yl)acetic acid], at hCRTH2 receptor [1], the IC50 came to 27 nM.

In the case of `CN(c1ncc(Cl)cn1)C1CCc2c(c3cc(OC(F)(F)F)ccc3n2CC(=O)O)C1` (centres unmarked) [Example 56, 2-(3-((5-chloropyrimidin-2-yl)(methyl)amino)-6-(trifluoromethoxy)-3,4-dihydro-1H-carbazol-9(2H)-yl)acetic acid], the IC50 at hCRTH2 receptor [2] was found to be 303 nM; at hCRTH2 receptor [1], 8.8 nM.

Consider `CN(c1ncc(C(F)(F)F)cn1)[C@@H]1CCc2c(c3cc(F)ccc3n2CC(=O)O)C1` [Example 12, (3R)-2-(6-fluoro-3-(methyl(5-(trifluoromethyl)pyrimidin-2-yl)amino)-3,4-dihydro-1H-carbazol-9(2H)-yl)acetic acid], for which, at hCRTH2 receptor [1], the IC50 was found to be 141 nM.

`CN(c1nc(C(C)(C)C)cs1)C1CCc2c(c3cc(F)ccc3n2CC(=O)O)C1` (centres unmarked) [Example 46, 2-(3-((4-(tert-butyl)thiazol-2-yl)(methyl)amino)-6-fluoro-3,4-dihydro-1H-carbazol-9(2H)-yl)acetic acid]: at hCRTH2 receptor [1], the IC50 turned out to be 73 nM.

`CN(c1cc(C(C)(C)C)on1)C1CCc2c(c3cc(F)ccc3n2CC(=O)O)C1` (centres unmarked) [Example 48, 2-(3-((5-(tert-butyl)isoxazol-3-yl)(methyl)amino)-6-fluoro-3,4-dihydro-1H-carbazol-9(2H)-yl)acetic acid]: the IC50 at hCRTH2 receptor [1] was determined as 72 nM.

In the case of `CN(c1cnc2ccccc2n1)[C@H]1CCc2c(c3cc(F)ccc3n2CC(=O)O)C1` [Example 44, (3S)-2-(6-fluoro-3-(methyl(quinoxalin-2-yl)amino)-3,4-dihydro-1H-carbazol-9(2H)-yl)acetic acid], the IC50 at hCRTH2 receptor [2] was found to be 176 nM; on hCRTH2 receptor [1] it was 11 nM.

As to `Cc1cc(C)nc(N(C)[C@H]2CCc3c(c4cc(F)ccc4n3CC(=O)O)C2)n1` [Example 16, (3S)-2-(3-((4,6-dimethylpyrimidin-2-yl)(methyl)amino)-6-fluoro-3,4-dihydro-1H-carbazol-9(2H)-yl)acetic acid], the IC50 on hCRTH2 receptor [1] amounted to 125 nM.

In the case of `Cc1cc(N(C)C2CCc3c(c4cc(F)ccc4n3CC(=O)O)C2)no1` (centres unmarked) [Example 52, 2-(6-fluoro-3-(methyl(5-methylisoxazol-3-yl)amino)-3,4-dihydro-1H-carbazol-9(2H)-yl)acetic acid], the half-inhibitory concentration (IC50) was found to be 58 nM at hCRTH2 receptor [2] and 7.4 nM on hCRTH2 receptor [1].

On to `CN(c1ccc(F)cn1)[C@H]1CCc2c(c3cc(F)ccc3n2CC(=O)O)C1` [Example 36, (3S)-2-(6-fluoro-3-((5-fluoropyridin-2-yl)(methyl)amino)-3,4-dihydro-1H-carbazol-9(2H)-yl)acetic acid], for which the IC50 at hCRTH2 receptor [2] was 8 nM; at hCRTH2 receptor [1], 9.8 nM.

As to `CN(c1ncnc2ccccc12)[C@H]1CCc2c(c3cc(F)ccc3n2CC(=O)O)C1` [Example 21, (3S)-2-(6-fluoro-3-(methyl(quinazolin-4-yl)amino)-3,4-dihydro-1H-carbazol-9(2H)-yl)acetic acid], the half-maximal inhibitory concentration (IC50) on hCRTH2 receptor [1] was 26 nM.

`CC(C)N(c1ncc(Cl)cn1)[C@H]1CCc2c(c3cc(F)ccc3n2CC(=O)O)C1` [Example 26, (3S)-2-(3-((5-chloropyrimidin-2-yl)(isopropyl)amino)-6-fluoro-3,4-dihydro-1H-carbazol-9(2H)-yl)acetic acid]: the IC50 on hCRTH2 receptor [1] came to 809 nM.

Turning to `CN(c1ccc(Cl)cn1)[C@H]1CCc2c(c3cc(F)ccc3n2CC(=O)O)C1` [Example 37, (3S)-2-(3-((5-chloropyridin-2-yl)(methyl)amino)-6-fluoro-3,4-dihydro-1H-carbazol-9(2H)-yl)acetic acid], the IC50 was 13 nM at hCRTH2 receptor [2] and 5.2 nM on hCRTH2 receptor [1].

In turn, `O=C(O)Cn1c2c(c3cc(F)ccc31)C[C@H](Nc1ncc(C(F)(F)F)cn1)CC2` [Example 5, (3R)-2-(6-fluoro-3-((5-(trifluoromethyl)pyrimidin-2-yl)amino)-3,4-dihydro-1H-carbazol-9-(2H)-yl)acetic acid] came in with an IC50 at hCRTH2 receptor [1] of 27 nM.

On to `Cc1ccc2c(c1)c1c(n2CC(=O)O)CCC(N(C)c2ncc(Cl)cn2)C1` (centres unmarked) [Example 55, 2-(3-((5-chloropyrimidin-2-yl)(methyl)amino)-6-methyl-3,4-dihydro-1H-carbazol-9(2H)-yl)acetic acid], for which the figures for the IC50 at hCRTH2 receptor [2] and at hCRTH2 receptor [1] were 40 nM and 5.5 nM, respectively.

Turning to `CN(c1nccc(C(F)(F)F)n1)[C@H]1CCc2c(c3cc(F)ccc3n2CC(=O)O)C1` [Example 13, (3S)-2-(6-fluoro-3-(methyl(4-(trifluoromethyl)pyrimidin-2-yl)amino)-3,4-dihydro-1H-carbazol-9(2H)-yl)acetic acid], the IC50 on hCRTH2 receptor [2] is 769 nM; at hCRTH2 receptor [1], 12 nM.

In turn, `CN(c1nccc(C(F)(F)F)n1)[C@@H]1CCc2c(c3cc(F)ccc3n2CC(=O)O)C1` [Example 14, (3R)-2-(6-fluoro-3-(methyl(4-(trifluoromethyl)pyrimidin-2-yl)amino)-3,4-dihydro-1H-carbazol-9(2H)-yl)acetic acid] came in with an IC50 on hCRTH2 receptor [1] of 67 nM.

`O=C(O)Cn1c2c(c3cc(F)ccc31)C[C@@H](N(CC(F)F)c1ncc(Cl)cn1)CC2` [Example 41, (3S)-2-(3-((5-chloropyrimidin-2-yl)(2,2-difluoroethyl)amino)-6-fluoro-3,4-dihydro-1H-carbazol-9(2H)-yl)acetic acid]: the values for the IC50 on hCRTH2 receptor [2] and on hCRTH2 receptor [1] were 68 nM and 15 nM, respectively.

Compound `CN(c1ccn(C)n1)C1CCc2c(c3cc(F)ccc3n2CC(=O)O)C1` (centres unmarked) [Example 49, 2-(6-fluoro-3-(methyl(1-methyl-1H-pyrazol-3-yl)amino)-3,4-dihydro-1H-carbazol-9(2H)-yl)acetic acid] showed an IC50 on hCRTH2 receptor [1] of 37 nM.

`Cc1nnc(N(C)C2CCc3c(c4cc(F)ccc4n3CC(=O)O)C2)s1` (centres unmarked) [Example 50, 2-(6-fluoro-3-(methyl(5-methyl-1,3,4-thiadiazol-2-yl)amino)-3,4-dihydro-1H-carbazol-9(2H)-yl)acetic acid] had an IC50 at hCRTH2 receptor [1] of 127 nM.

Compound `CN(c1ncc(F)cn1)[C@@H]1CCc2c(c3cc(F)ccc3n2CC(=O)O)C1` [Example 8, (3R)-2-(6-fluoro-3-((5-fluoropyrimidin-2-yl)(methyl)amino)-3,4-dihydro-1H-carbazol-9(2H)-yl)acetic acid] displayed an IC50 on hCRTH2 receptor [1] of 42 nM.

At hCRTH2 receptor [1], `Cc1nc(N(C)[C@H]2CCc3c(c4cc(F)ccc4n3CC(=O)O)C2)c2ccccc2n1` [Example 23, (3S)-2-(6-fluoro-3-(methyl(2-methylquinazolin-4-yl)amino)-3,4-dihydro-1H-carbazol-9(2H)-yl)acetic acid] gave an IC50 of 55 nM.

On hCRTH2 receptor [1], `O=C(O)Cn1c2c(c3cc(F)ccc31)C[C@H](Nc1nccc(C(F)(F)F)n1)CC2` [Example 6, (3R)-2-(6-fluoro-3-((4-(trifluoromethyl)pyrimidin-2-yl)amino)-3,4-dihydro-1H-carbazol-9-(2H)-yl)acetic acid] came in with an IC50 of 46 nM.
